“Also recorded” adds a separate entry of the source.
Legend:
INS1 cells [1] = assay: Western blot for mitochondrial proteins; type: cell-based; details: 24 h
Protocol: INS1 cells expressing Mitotimer under EF-1 alpha promoter were treated for 18 hours with rapamycin (100 nM). […] FIGS. 2B and 2C show a Western blot for mitochondrial proteins upon treatment with rapamycin. Note that rapamycin increased mitochondrial mass.
Cell treatments and mitochondrial extraction. INS1 cells were treated with SBP08007 or MWP00839 25 uM for 24 h. Mitochondrial and cytosolic fractions from INS1 cells were performed by using the Mitochondria Isolation Kit for Cultured Cells (Pierce). INS1 cells were lysed in a hypotonic buffer (10 mM NaCl, 1.5 mM MgCl2, and 10 mM Tris.HCl, pH 7.5), and mitochondria were extracted in a Dounce homogenizer in mitochondrial buffer (1 mM EDTA, 210 mM mannitol, 70 mM sucrose, and 5 mM Tris.HCl, 7.5), followed by centrifugation at 1,300×g for 10 min at 4° C. The supernatant was further centrifuged at 17,000×g for 15 min at 4° C. to pellet the mitochondria. The crude mitochondrial fraction was resuspended for washing and centrifuged at 17,000×g for 15 min at 4° C. The pellets were collected as the mitochondrial fraction.
Western blot. Cell lysates were diluted in Laemmli sample buffer (100 mM Tris-HCl, 2% SDS, 10% glycerol, 0.1% bromophenol blue) containing 5% beta-mercaptoethanol. After heating at 95° C. for 5 min, proteins were separated by SDS-PAGE previously added of Stain Free reagent (BioRad), and transferred onto PVDF membranes. Membranes were blocked with 5% non-fat milk and detection of individual proteins was carried out by blotting with specific primary antibodies against ubiquitin (Calbiochem 1:1,000). Chemiluminescence detection using a secondary peroxidase-linked anti-rabbit (Calbiochem; 1:10,000) and a detection system from Pierce KLP (Rockford, Ill., USA) was performed. Stain free total protein labeling was imaged in Image Lab 6.0 Software (BioRad), which was used for quantification of the mitochondria and normalization to total protein staining.

INS1 cells [2] = assay: Mitochondrial membrane potential (TMRE/MTG); type: cell-based; details: 25 uM, 24 h
Protocol: INS1 cells were treated for 24 h with SPB08007 (25 uM) or DMSO (0.1%). Mitochondrial membrane potential was analyzed cell by cell through TMRE staining corrected by Mitotracker Green (MTG). Cells were imaged using a 100× Plan Neofluar objective and the Airyscan module of a Zeiss LSM880 confocal microscope. […] Each experiment was repeated 2 times, 59-85 cells of each group were analyzed in each experiment for TMRE/MTG, and 48 fields were analyzed in each experiment for Mitosox analysis. *p<0.05 vs. DMSO; ***p<0.05 vs. DMSO and SPB08007.
To assess mitochondrial membrane potential, INS1 cells were plated in each compartment of a quadrant imaging dish (Greiner Bio-One International) at a density of 1.2*10^5 cells/well. After 48 h, cells were incubated RPMI-1640 containing 25 μM of compound A or vehicle (0.1% DMSO). After 18h, the cells were stained in RPMI-1640 media containing 200 nM MitoTracker Green (MTG) and 15 nM of Tetramethylrhodamine, ethyl ester (TMRE); cells were then washed three times and finally kept in RPMI-1640 containing TMRE but lacking MTG. Live-Imaging was performed using a 63× Plan Neofluar objective and the Airyscan module of a Zeiss LSM880 confocal microscope. The mitochondrial membrane potential was analyzed by TMRE fluorescence corrected by MTG, using the Fiji/ImageJ software.

mouse islets = assay: Glucose stimulation insulin secretion assay; type: cell-based; details: 25 uM 24 h pretreatment
Protocol: FIG. 12A show mouse islets were pre-incubated with SPB08007 (25 uM) or DMSO (0.1%) for 24 h. Islets were adapted to KRB media containing glucose 2 mM for 1 h, followed by media exchange containing glucose 2 mM (basal) or 12 mM (stimulated). After 1 h, Insulin released in the media was measured by ELISA. […] N=3. *p<0.05 vs. DMSO basal. ***p<0.001 vs. DMSO.
Islet isolation. Islets were isolated from DBA/2 mice. Briefly, pancreata of anesthetized mice were infused with collagenase (1 mg/ml, type XI, Sigma-Aldrich, Rehovot, Israel), excised, and incubated for 30 min at 37° C. The digested tissue was vortexed, filtered and washed in HBSS (Biological Industries) containing 0.5% BSA (Sigma). The pellet was resuspended in RPMI medium 1640 supplemented with 10% FCS, 50 units/ml penicillin, and 50 μg/ml streptomycin (all from Biological Industries). Islets were collected on a 100-μm cell strainer (BD, Falcon) and hand-picked using stereoscope (Zeiss, Oberkochen, Germany)
Glucose stimulation insulin secretion assay. After 24-hour pretreatment with SPB08007, 25 uM, islets were washed twice with PBS (Biological Industries, Bet-Haemek, Israel). For basal insulin secretion, the islets were incubated with Krebs-Ringer Bicarbonate (KRB) buffer supplemented with 0.5% BSA and 2 mM glucose for 30 min at 37 deg. C and 5% CO2. For stimulated insulin secretion, the buffer was replaced with KRB buffer supplemented with 0.5% BSA and 16 mM glucose and the islets were incubated for additional 60 min. Supernatant insulin content was measured by ELISA (Merck Millipore, Burlington, Mass.).

INS1 cells [3] = tested on: INS1 cells
Protocol: Cellular oxygen consumption. An hour before oxygen consumption measurements, cell media was replaced by assay media (2 mM glucose, 0.8 mM Mg 2+, 1.8 mM Ca 2+, 143 mM NaCl, 5.4 mM KCl, 0.91 mM, NaH 2 PO 4 , and 15 mg/mL Phenol red) for 120 min at 37° C. (no CO2) before loading into the Seahorse Bioscience XF24 extracellular analyzer. The ports of the cartridge containing the oxygen probes were loaded with the compounds to be injected during the assay (50 μL/port) and the cartridge was calibrated.
Basal respiration was recorded for 30 min, at approximately 5 min intervals until system stabilization. Glucose was injected at a final concentration of 12 mM and glucose stimulated respiration was recorded for approximately 15 min. FCCP (Carbonyl cyanide-4-phenylhydrazone) was used at final concentration of 4 μM and injected with sodium pyruvate (Sigma) at a final concentration of 5 mM. Oligomycin and antimycin were used at final concentrations of 2 and 4 μM, respectively. All respiratory modulators were used at ideal concentrations titrated during preliminary experiments (not shown) and oxygen consumption rates were recorded for up to 15 min due the toxicity of these compounds. […] All the OCR values were subtracted from the lowest antimycin OCR.

CC(=O)N/C(=C\c1sc2ccccc2c1C)C(=O)O [SPB08007]
CI-NDFUB8 levels (INS1 cells [1]; 25 uM): unaffected | SDHB (Complex II) protein level increase (INS1 cells [1]; 25 uM, relative to DMSO): 2 fold | UQCRC2 (Complex III) protein level increase (INS1 cells [1]; 25 uM, relative to DMSO): 1.5 fold | overall mitochondrial protein (INS1 cells [1]): reduces | mitochondrial membrane potential ψm (TMRE/MTG) (INS1 cells [2]): not reduced; also recorded: slightly, but significantly, raised | insulin secretion fold (glucose stimulated/basal) (mouse islets): higher secretion fold | basal insulin secretion (mouse islets; 2 mM glucose): significantly reduced | glucose-stimulated insulin secretion (mouse islets; 16 mM of glucose): maintaining the levels | OCR under oligomycin (INS1 cells [3]; 25 μM, 18 hours exposure): decreased as well | basal oxygen consumption rate (OCR) (INS1 cells [3]; 25 μM, 18 hours exposure): decreased | maximal OCR (under FCCP induction) (INS1 cells [3]; 25 μM, 18 hours exposure): decreased | ATP-linked oxygen consumption (INS1 cells [3]; 25 uM, 48 h): higher | glucose-stimulated mtOCR (INS1 cells [3]; 25 uM, 48 h): increased | mitochondrial coupling (oligomycin-sensitive respiration) (INS1 cells [3]; 25 uM, 48 h): conserving | spare respiratory capacity relative to basal respiration (INS1 cells [3]; 25 uM, 48 h): unchanged | basal mitochondrial oxygen consumption rate (mtOCR) (INS1 cells [3]; 25 uM, 48 h, 2 mM glucose): increased | maximum mtOCR (INS1 cells [3]; 25 uM, 48 h, after FCCP): increased
